# Experiments:
# Format in all cases: in vivo
# [1] = system: Matricaria chamomilla (wild chamomile); test: Greenhouse postemergence herbicidal effect, wild chamomile (MATCH); settings: 20-22 d; for % visual injury: Example 1
# From the text: (§1) Greenhouse Trial Methodology—Evaluation of Postemergence Herbicidal Effect
# (§2) Seeds of the desired test plant species were planted in a 90:10% v/v (volume/volume) mixture of PRO-MIX® BX (Premier Tech Horticulture, Quakertown, Pa., USA) and PROFILE® GREENS GRADE™ (Profile Products LLC, Buffalo Grove, Ill., USA) planting mixture, which typically has a pH of 5.2 to 6.2 and an organic matter content of at least 50 percent, in plastic pots with a surface area of 103.2 square centimeters (cm^2). In some aspects, to ensure good germination and healthy plants, a fungicide treatment and/or other chemical or physical treatment was applied. The plants were grown for 7-36 days (d) in a greenhouse with an approximate 14-hour (h) photo-period which was maintained at about 23° C. during the day and 22° C. during the night. Nutrients and water were added on a regular basis and supplemental lighting was provided with overhead metal halide 1000-Watt lamps as necessary. The plants were employed for testing when they reached the second or third true leaf stage.
# (§3) Emulsifiable concentrates of each of each pyridine carboxylate herbicide (Compound A or Compound B) were prepared at 100 grams acid equivalent per liter (g ae/L). The emulsifiable concentrates also included a safener, cloquintocet-mexyl, at 120 grams active ingredient per liter (g ai/L). An aliquot of each emulsifiable concentrate was placed in a 25 mL glass vial and diluted with an aqueous mixture of 1.25% (v/v) ACTIROB® B esterified rapeseed oil (Bayer Crop Science, Research Triangle Park, N.C., USA) or MSO® Concentrate with LECI-TECH® methylated soybean oil (Loveland Products, Loveland, Colo., USA) to obtain concentrated stock solutions at the highest application rate for each herbicide, based upon a 12 milliliter (mL) application volume at a rate of 187 liters per hectare (L/ha). The concentrated stock solutions were further diluted with an aqueous mixture of 1.25% v/v ACTIROB® B or MSO® Concentrate with LECI-TECH® to obtain stock solutions at reduced application rates for each herbicide. Spray solutions of the herbicide combinations (Compound A or Compound B plus glyphosate or glufosinate) were prepared by adding weighed amounts or aliquots of the glyphosate or glufosinate to the stock solutions of Compound A or Compound B to form 12-mL spray solutions in two-way combinations.
# (§4) The spray solutions were applied to the plant material with an overhead Mandel track sprayer equipped with 8002E nozzles calibrated to deliver 187 L/ha over an application area of 0.503 square meters (m^2) at a spray height of 18 inches (43 centimeters (cm)) above the average plant canopy. Control plants were sprayed in the same manner with the solvent blank. All pyridine carboxylate herbicide (component a) application rates are given as “g ae/ha” and all glyphosate or glufosinate (component b) application rates are given as “g ai/ha.”
# (§5) The treated plants and control plants were placed in a greenhouse as described above and watered by sub-irrigation to prevent wash-off of the test compounds. After 20-22 d, the condition of the test plants as compared with that of the control plants was determined visually and scored on a scale of 0 to 100 percent where 0 corresponds to no injury and 100 corresponds to complete kill.
# [2] = system: Cirsium arvense (Canadian thistle); test: Greenhouse postemergence herbicidal effect, Canadian thistle (CIRAR); settings: 20-22 d; for % visual injury: Example 1
# From the text: as §1, §2, §3, §4, §5
# [3] = system: Chenopodium album L. (common lambsquarters); test: Greenhouse postemergence herbicidal effect, common lambsquarters (CHEAL); settings: 20-22 d; for % visual injury: Example 1
# From the text: as §1, §2, §3, §4, §5
# [4] = system: Viola tricolor (wild pansy); test: Greenhouse postemergence herbicidal effect, wild pansy (VIOTR); settings: Example 5, 20-22 d
# From the text: as §1, §2, §3, §4, §5
# [5] = system: Brassica napus (winter rape); test: Greenhouse postemergence herbicidal effect, winter rape (BRSNW); settings: 20-22 d; for % visual injury: Example 1
# From the text: as §1, §2, §3, §4, §5
# [6] = system: Sorghum vulgare (grain sorghum); test: Greenhouse postemergence herbicidal effect, grain sorghum (SORVU); settings: Example 5, 20-22 d
# From the text: as §1, §2
# (§6) Emulsifiable concentrates of each of each pyridine carboxylate herbicide (Compound A or Compound B) were prepared at 100 grams acid equivalent per liter (g ae/L). The emulsifiable concentrates also included a safener, cloquintocet-mexyl, at 120 grams active ingredient per liter (g ai/L). […]
# as §5
# [7] = system: Amaranthus retroflexus (pigweed); test: Greenhouse postemergence herbicidal effect, pigweed (AMARE); settings: 20-22 d; for % visual injury: Example 1
# From the text: as §1, §2, §3, §4, §5
# Kochia scoparia (kochia) = test: Greenhouse postemergence herbicidal effect, kochia (KCHSC); settings: 20-22 d; for % visual injury: Example 1
# From the text: as §1, §2, §3, §4, §5
# [8] = system: Echinochloa crus-galli (barnyardgrass); test: Greenhouse postemergence herbicidal effect, barnyardgrass (ECHCG); settings: Example 5, 20-22 d
# From the text: as §1, §2, §6, §5
# [9] = system: Stellaria media (chickweed); test: Greenhouse postemergence herbicidal effect, chickweed (STEME); settings: Example 5, 20-22 d
# From the text: as §1, §2, §6, §5
# [10] = system: Cyperus esculentus (nutsedge); test: Greenhouse postemergence herbicidal effect, nutsedge (CYPES); settings: Example 5, 20-22 d
# From the text: as §1, §2, §6, §5
# [11] = system: Helianthus annuus (common sunflower); test: Greenhouse postemergence herbicidal effect, common sunflower (HELAN); settings: Example 5, 20-22 d
# From the text: as §1, §2, §6, §5
# [12] = system: Hordeum vulgare (spring barley); test: Greenhouse postemergence phytotoxicity on crop, spring barley (HORVS); settings: 20-22 d; for % visual injury: Example 1
# From the text: as §1, §2, §3, §4, §5
# [13] = system: Triticum aestivum (spring wheat); test: Greenhouse postemergence phytotoxicity on crop, spring wheat (TRZAS); settings: 20-22 d; for % visual injury: Example 1
# From the text: as §1, §2, §3, §4, §5
# [14] = system: Polygonum convolvulus (wild buckwheat); test: Greenhouse postemergence herbicidal effect, wild buckwheat (POLCO); settings: 20-22 d; for % visual injury: Example 1
# From the text: as §1, §2, §3, §4, §5
# [15] = system: Sinapis arvensis (wild mustard); test: Greenhouse postemergence herbicidal effect, wild mustard (SINAR); settings: 20-22 d; for % visual injury: Example 1
# From the text: as §1, §2, §3, §4, §5
# [16] = system: Euphorbia heterophylla (poinsettia); test: Greenhouse postemergence herbicidal effect, poinsettia (EPHHL); settings: Example 5, 20-22 d
# From the text: as §1, §2, §6, §5
# [17] = system: Salsola kali (Russian thistle); test: Greenhouse postemergence herbicidal effect, Russian thistle (SASKR); settings: 20-22 d; for % visual injury: Example 1
# From the text: as §1, §2, §3, §4, §5
# [18] = system: Ipomoea hederacea (ivyleaf morningglory); test: Greenhouse postemergence herbicidal effect, ivyleaf morningglory (IPOHE); settings: Example 5, 20-22 d
# From the text: as §1, §2, §6, §5
# [19] = system: Rumex obtusifolius (broad-leaf dock); test: Greenhouse postemergence herbicidal effect, broad-leaf dock (RUMOB); settings: Example 5, 20-22 d
# From the text: as §1, §2, §6, §5
# [20] = Example 2, Compound A 7.5 g ae/ha alone
# [21] = Example 2, Compound A 10 g ae/ha alone
# [22] = Example 6, Compound A 7.5 g ae/ha alone
# [23] = Example 6, Compound A 10 g ae/ha alone
# [24] = Example 5, Compound A 7.5 g ae/ha alone
# [25] = Example 5, Compound A 10 g ae/ha alone
smiles,measurement,setting,value
"N#CCOC(=O)c1nc(-c2ccc3cc[nH]c3c2F)c(F)c(N)c1Cl [Compound A, cyanomethyl 4-amino-3-chloro-5-fluoro-6-(7-fluoro-1H-indol-6-yl)pyridine-2-carboxylate]",% visual injury,[1]; Compound A 7.5 g ae/ha alone,20%
same,% visual injury,[1]; Compound A 10 g ae/ha alone,30%
same,"% visual injury, Obs",[1]; [20],10%
same,"% visual injury, Obs",[1]; [21],20%
same,"% visual injury, Obs",[1]; [22],10%
same,"% visual injury, Obs",[1]; [23],20%
same,% visual injury,[2]; Compound A 7.5 g ae/ha alone,30%
same,% visual injury,[2]; Compound A 10 g ae/ha alone,40%
same,"% visual injury, Obs",[2]; [20],40%
same,"% visual injury, Obs",[2]; [21],55%
same,"% visual injury, Obs",[2]; [24],40%
same,"% visual injury, Obs",[2]; [25],60%
same,"% visual injury, Obs",[2]; [22],40%
same,"% visual injury, Obs",[2]; [23],55%
same,% visual injury,[3]; Compound A 7.5 g ae/ha alone,88%
same,% visual injury,[3]; Compound A 10 g ae/ha alone,93%
same,"% visual injury, Obs",[3]; [20],75%
same,"% visual injury, Obs",[3]; [21],80%
same,"% visual injury, Obs",[3]; [22],75%
same,"% visual injury, Obs",[3]; [23],80%
same,"% visual injury, Obs",[4]; Compound A 7.5 g ae/ha alone,38%
same,"% visual injury, Obs",[4]; Compound A 10 g ae/ha alone,15%
same,% visual injury,[5]; Compound A 7.5 g ae/ha alone,35%
same,% visual injury,[5]; Compound A 10 g ae/ha alone,43%
same,"% visual injury, Obs",[5]; [20],35%
same,"% visual injury, Obs",[5]; [21],40%
same,"% visual injury, Obs",[5]; [22],35%
same,"% visual injury, Obs",[5]; [23],40%
same,"% visual injury, Obs",[6]; Compound A 7.5 g ae/ha alone,0%
same,"% visual injury, Obs",[6]; Compound A 10 g ae/ha alone,0%
same,% visual injury,[7]; Compound A 7.5 g ae/ha alone,78%
same,% visual injury,[7]; Compound A 10 g ae/ha alone,73%
same,"% visual injury, Obs",[7]; [20],90%
same,"% visual injury, Obs",[7]; [21],85%
same,"% visual injury, Obs",[7]; [22],90%
same,"% visual injury, Obs",[7]; [23],85%
same,% visual injury,Kochia scoparia (kochia); Compound A 7.5 g ae/ha alone,63%
same,% visual injury,Kochia scoparia (kochia); Compound A 10 g ae/ha alone,63%
same,"% visual injury, Obs",Kochia scoparia (kochia); [20],70%
same,"% visual injury, Obs",Kochia scoparia (kochia); [21],70%
same,"% visual injury, Obs",Kochia scoparia (kochia); [24],75%
same,"% visual injury, Obs",Kochia scoparia (kochia); [25],73%
same,"% visual injury, Obs",Kochia scoparia (kochia); [22],70%
same,"% visual injury, Obs",Kochia scoparia (kochia); [23],70%
same,"% visual injury, Obs",[8]; Compound A 7.5 g ae/ha alone,88%
same,"% visual injury, Obs",[8]; Compound A 10 g ae/ha alone,80%
same,"% visual injury, Obs",[9]; Compound A 7.5 g ae/ha alone,89%
same,"% visual injury, Obs",[9]; Compound A 10 g ae/ha alone,90%
same,"% visual injury, Obs",[10]; Compound A 7.5 g ae/ha alone,30%
same,"% visual injury, Obs",[10]; Compound A 10 g ae/ha alone,8%
same,"% visual injury, Obs",[11]; Compound A 7.5 g ae/ha alone,90%
same,"% visual injury, Obs",[11]; Compound A 10 g ae/ha alone,89%
same,% visual injury,[12]; Compound A 7.5 g ae/ha alone,0%
same,% visual injury,[12]; Compound A 10 g ae/ha alone,0%
same,"% visual injury, Obs",[12]; [20],0%
same,"% visual injury, Obs",[12]; [21],0%
same,"% visual injury, Obs",[12]; [22],0%
same,"% visual injury, Obs",[12]; [23],0%
same,% visual injury,[13]; Compound A 7.5 g ae/ha alone,0%
same,% visual injury,[13]; Compound A 10 g ae/ha alone,0%
same,"% visual injury, Obs",[13]; [20],0%
same,"% visual injury, Obs",[13]; [21],0%
same,"% visual injury, Obs",[13]; [22],0%
same,"% visual injury, Obs",[13]; [23],0%
same,% visual injury,[14]; Compound A 7.5 g ae/ha alone,78%
same,% visual injury,[14]; Compound A 10 g ae/ha alone,93%
same,"% visual injury, Obs",[14]; [20],30%
same,"% visual injury, Obs",[14]; [21],43%
same,"% visual injury, Obs",[14]; [24],83%
same,"% visual injury, Obs",[14]; [25],93%
same,"% visual injury, Obs",[14]; [22],30%
same,"% visual injury, Obs",[14]; [23],43%
same,% visual injury,[15]; Compound A 7.5 g ae/ha alone,88%
same,% visual injury,[15]; Compound A 10 g ae/ha alone,90%
same,"% visual injury, Obs",[15]; [20],83%
same,"% visual injury, Obs",[15]; [21],88%
same,"% visual injury, Obs",[15]; [22],83%
same,"% visual injury, Obs",[15]; [23],88%
same,"% visual injury, Obs",[16]; Compound A 7.5 g ae/ha alone,97%
same,"% visual injury, Obs",[16]; Compound A 10 g ae/ha alone,97%
same,% visual injury,[17]; Compound A 7.5 g ae/ha alone,60%
same,% visual injury,[17]; Compound A 10 g ae/ha alone,63%
same,"% visual injury, Obs",[17]; [20],60%
same,"% visual injury, Obs",[17]; [21],63%
same,"% visual injury, Obs",[17]; [22],60%
same,"% visual injury, Obs",[17]; [23],63%
same,"% visual injury, Obs",[18]; Compound A 7.5 g ae/ha alone,20%
same,"% visual injury, Obs",[18]; Compound A 10 g ae/ha alone,25%
same,"% visual injury, Obs",[19]; Compound A 7.5 g ae/ha alone,20%
same,"% visual injury, Obs",[19]; Compound A 10 g ae/ha alone,13%

# From patent publication US20210400967A1, “COMPOSITIONS COMPRISING PYRIDINE CARBOXYLATE HERBICIDES WITH GLYPHOSATE OR GLUFOSINATE” (Corteva Agriscience LLC, priority 2018, published 2021)
